Where two headings read alike, the source gives them in different places. Bridge positions count the residues as written; N and C are the ends. Ends that are not written are not given here.
Legend:
[1] = system: L. monocytogenes and S. aureus; experiment: Minimum bactericidal concentration (MBC), plating from MIC wells; assay type: cell-based, Listeria monocytogenes, Staphylococcus aureus; settings: 99.9% reduction of initial inoculum; 10 μl from wells with no visible growth plated on BHI agar
Protocol: The strain collection was tested for sensitivity to protamine, plectasin, novicidin, and novispirin G10 by determining their minimal inhibitory concentration (MIC) using a microbroth dilution method. Colonies from a BHI agar plate incubated overnight were suspended in MHB pH 7.4 to a turbidity of 0.11–0.12 at 546 nm (approx. 1.0 × 10^8 CFU/ml) and diluted in MHB to a concentration of 5.0 × 10^5 CFU/ml. 90 μl of bacterial suspension was incubated with 10 μl of peptide solution in polypropylene 96-well plates (Nunc, 442587) for 18–24 h at 37°C. The peptide solutions were made fresh on the day of assay and diluted two-fold. The range of concentrations assayed were 0.031–32 μg/ml for novicidin, 0.125–128 μg/ml for protamine and novispirin G10, and 0.25–256 μg/ml for plectasin. MIC was the lowest peptide concentration at which visual growth was inhibited. The minimum bactericidal concentration (MBC) values were determined by plating l0 μl samples from wells with no visible growth onto BHI agar plates. MBC was the lowest concentration of each peptide of which 99.9% reduction of the initial inoculum was observed.

Staphylococcus aureus = assay type: cell-based; settings: radial diffusion, MHB pH 7.4/1% agarose/0.1% glucose, overnight, 37°C
Protocol: (§1) Experiments were carried out with a collection of 25 Listeria monocytogenes strains (Table 1) and 16 Staphylococcus aureus strains (Table 2) representing different lineages and serotypes (L. monocytogenes), spa types (S. aureus), and origins (food processing environment, food products, and human clinical isolates). Six L. monocytogenes strains were mutants of the EGD strain and were mutated in genes known to be involved in stress tolerance. The S. aureus collection comprised two deletion mutants, strains Sa113/ΔmprF [8] and Sa113/ΔdltA [7], known to be more sensitive to host defense peptides. Two of the S. aureus strains could not immediately be assigned to an existing spa type and we are in the process of acquiring the additional information that is needed to assign a new spa type to them. The strains were obtained from The National Institute of Aquatic Resources and The National Food Institute, Technical University of Denmark, Faculty of Life Sciences, University of Copenhagen, Denmark, Statens Serum Institut, Denmark, University of Würzburg, Germany and Campden Food and Drink Association, United Kingdom. Stock cultures were stored at -80°C in 4% (w/V) glycerol, 0.5% (w/V) glucose, and 2.0% (w/V) skimmed milk powder. The bacteria were grown in Brain Heart Infusion (BHI) broth (Oxoid, CM0225), Tryptone Soy Broth (TSB) (Oxoid, CM129), and cation-adjusted Mueller-Hinton II Broth (MHB) (Becton Dickinson, 212322) adjusted to pH 7.4. To avoid unspecific binding of host defense peptides to plastic ware and agar, all MIC determinations were carried out using polypropylene plastic ware and radial diffusion assays were carried out in MHB supplemented with 1% agarose (Invitrogen, 15510-027) as gelling agent.
(§2) Protamine was purchased from Sigma (P4020-5G). Plectasin, novicidin, and novispirin G10 were supplied by Novozymes A/S. Recombinant HBD-3 was purchased from PeproTech (300-52).
(§3) Each strain was tested in two independent trials.

Listeria monocytogenes = assay type: cell-based; settings: radial diffusion, MHB pH 7.4/1% agarose/0.1% glucose, overnight, 37°C
Protocol: as §1, §2, §3

Molecule: CC[C@H](C)[C@@H]1NC(=O)[C@H](CO)NC(=O)[C@H](CCCCN)NC(=O)[C@@H]2CSSC[C@@H](C(=O)N[C@@H](Cc3ccc(O)cc3)C(=O)O)NC(=O)[C@H](CCCCN)NC(=O)[C@@H]3CSSC[C@H](NC(=O)[C@H](CCC(N)=O)NC(=O)[C@H](CCSC)NC(=O)[C@H](CC(=O)O)NC(=O)[C@H](CC(=O)O)NC(=O)[C@H](CCC(=O)O)NC(=O)[C@H](CC(=O)O)NC(=O)[C@H](Cc4c[nH]c5ccccc45)NC(=O)[C@@H]4CCCN4C(=O)CNC(=O)[C@H](CC(N)=O)NC(=O)[C@@H](NC(=O)CNC(=O)[C@H](Cc4ccccc4)NC(=O)CN)CSSC[C@H](NC(=O)[C@H](Cc4ccc(O)cc4)NC(=O)CNC(=O)CNC(=O)[C@H](CCCCN)NC(=O)[C@H](Cc4ccc(O)cc4)NC(=O)CNC(=O)[C@H](CCCCN)NC1=O)C(=O)N[C@@H](C)C(=O)N[C@@H](CCCCN)C(=O)NCC(=O)NCC(=O)N[C@@H](Cc1ccccc1)C(=O)N[C@@H](C(C)C)C(=O)N3)C(=O)N[C@@H](Cc1c[nH]cn1)C(=O)N[C@@H](CC(N)=O)C(=O)N[C@@H](Cc1c[nH]cn1)C(=O)N2 [plectasin]
- minimum bactericidal concentrations (MBC) [1]: identical to the MICs

Molecule: GIINTLQKYYCRVRGGRCAVLSCLPKEEQIGKCSTRGRKCCRRKK (disulfide 11-40, 18-33, 23-41 (inferred)) [HBD-3, human β-defensin 3]
- MIC (MEC) (Staphylococcus aureus; strain 796, first of two values (two independent trials)): 64/64 μg/ml
- MIC (MEC) (Staphylococcus aureus; strain 796, second of two values (two independent trials)): 64/64 μg/ml
- MIC (MEC) (Staphylococcus aureus; strain 2148-jvi, first of two values (two independent trials)): 32/32 μg/ml
- MIC (MEC) (Staphylococcus aureus; strain 2148-jvi, second of two values (two independent trials)): 32/32 μg/ml
- MIC (MEC) (Staphylococcus aureus; strain 8325-4, first of two values (two independent trials)): 32/32 μg/ml
- MIC (MEC) (Staphylococcus aureus; strain 8325-4, second of two values (two independent trials)): 32/32 μg/ml
- MIC (MEC) (Staphylococcus aureus; strain 14943, first of two values (two independent trials)): 32 µg/mL
- MIC (MEC) (Staphylococcus aureus; strain 14943, second of two values (two independent trials)): 64 µg/mL
- MIC (MEC) (Staphylococcus aureus; strain B31369, first of two values (two independent trials)): 64/64 μg/ml
- MIC (MEC) (Staphylococcus aureus; strain B31369, second of two values (two independent trials)): 64/64 μg/ml
- MIC (MEC) (Staphylococcus aureus; strain K3-B2, first of two values (two independent trials)): 32 µg/mL
- MIC (MEC) (Staphylococcus aureus; strain K3-B2, second of two values (two independent trials)): 64 µg/mL
- MIC (MEC) (Staphylococcus aureus; strain KES 626, first of two values (two independent trials)): 32 µg/mL
- MIC (MEC) (Staphylococcus aureus; strain KES 626, second of two values (two independent trials)): 64 µg/mL
- MIC (MEC) (Listeria monocytogenes; strain 4446, first of two values (two independent trials)): 16/16 μg/ml
- MIC (MEC) (Listeria monocytogenes; strain 4446, second of two values (two independent trials)): 16/16 μg/ml
- MIC (MEC) (Listeria monocytogenes; strain 7418, first of two values (two independent trials)): 4 µg/mL
- MIC (MEC) (Listeria monocytogenes; strain 7418, second of two values (two independent trials)): 8 µg/mL
- MIC (MEC) (Listeria monocytogenes; strain EGD, first of two values (two independent trials)): 16/16 μg/ml
- MIC (MEC) (Listeria monocytogenes; strain EGD, second of two values (two independent trials)): 16/16 μg/ml
- MIC (MEC) (Listeria monocytogenes; strain La22, first of two values (two independent trials)): 16/16 μg/ml
- MIC (MEC) (Listeria monocytogenes; strain La22, second of two values (two independent trials)): 16/16 μg/ml
- MIC (MEC) (Listeria monocytogenes; strain La111, first of two values (two independent trials)): 8 µg/mL
- MIC (MEC) (Listeria monocytogenes; strain La111, second of two values (two independent trials)): 16 µg/mL
- MIC (MEC) (Listeria monocytogenes; strain N53-1, first of two values (two independent trials)): 16 µg/mL
- MIC (MEC) (Listeria monocytogenes; strain N53-1, second of two values (two independent trials)): 32 µg/mL
- MIC (MEC) (Listeria monocytogenes; strain Scott A, first of two values (two independent trials)): 8/8 μg/ml
- MIC (MEC) (Listeria monocytogenes; strain Scott A, second of two values (two independent trials)): 8/8 μg/ml

Reference: article PMC2639596, “Antimicrobial peptides effectively kill a broad spectrum of Listeria monocytogenes and Staphylococcus aureus strains independently of origin, sub-type, or virulence factor expression” (BMC Microbiology, 2008)
